Source: patent publication US20230277524A1, “COMBINATION THERAPY FOR TREATMENT OF VIRAL INFECTIONS” (priority 2020, published 2023)
Entries after “also recorded” stand apart in the source; their conditions may differ. Like-named read-outs stand apart in the source and are kept apart here.

What was measured:
SARS-CoV-2 virus [1] = type: cell-based
SARS-CoV-2 virus [2] = experiment: microbe, parasite or virus in culture; type: cell-based; settings: Severe acute respiratory syndrome coronavirus 2, 72 h; Vero E6-WT cells, three days post-infection; read-out: EC50 for % inhibition of virus-induced CPE
SARS-CoV-2 virus [3] = experiment: microbe, parasite or virus in culture; type: cell-based
SARS-CoV-2 = experiment: Cell-based antiviral assay (CPE, MTS) in Huh7 cells; settings: Huh7, 0.0062 μM concentration level, 4 days post-infection
ABCB1 = settings: low-nM dual-specificity ABCB1/ABCG2 inhibitor; cited from earlier work
[4] = plate 3, 12 drugs, 250 nM, day 4, MLR model (FIG. 2)
[5] = 250 nM, day 4 (FIG. 3, P3 TOX 250 nM)

## C[C@H]1CCC/C=C/[C@@H]2C[C@H](O)C[C@H]2[C@H](O)/C=C/C(=O)O1 [BrefA, Brefeldin A]
VERO-EGFP cells; twelve-drug plate, scanned 4 days later (FIG. 10)
  toxicity (loss of fluorescence intensity, cell loss): cytotoxic and the cause of the observed cell loss

## Cc1c(O)c(=O)ccn1C [Deferiprone]
SARS-CoV-2 virus [1]
  complementing the REC combination or substituting for curcumin: failed to complement the REC combination or substitute for curcumin

## O=c1nc(NO)ccn1[C@@H]1O[C@H](CO)[C@@H](O)[C@H]1O [EIDD-1931]
SARS-CoV-2 virus [1]
  enhancement of / effect on the REC combination: had no effect on the REC combination
SARS-CoV-2 virus [1]; focus testing (FIGS. 13-18)
  substitution for remdesivir in the REC combination: failed to substitute for remdesivir
SARS-CoV-2 virus [1]; focus testing (FIGS. 13-18), listed as EIDD1931
  substitution for remdesivir in the REC combination: none were able to substitute for remdesivir
SARS-CoV-2 virus [1]; listed as EIDD1
  individual antiviral efficacy against SARS-CoV2: does not exert an antiviral effect
SARS-CoV-2 virus [1]; listed as EIDD1931
  individual antiviral efficacy against SARS-CoV2: did not provide evidence for efficacy

## CC(C)C(=O)OC[C@H]1O[C@@H](n2cc/c(=N\O)[nH]c2=O)[C@H](O)[C@@H]1O [EIDD-2801]
SARS-CoV-2 virus [1]
  substitution for remdesivir in the REC combination: failed as a substitute for remdesivir; also recorded: none were able to substitute for remdesivir

## N#C[C@@]1(c2ccc3c(N)ncnn23)O[C@H](CO)[C@@H](O)[C@H]1O [GS441524]
SARS-CoV-2 virus [1]
  individual antiviral efficacy against SARS-CoV2: smaller, yet significant, antiviral effect
  substitution for remdesivir in the REC combination: did not replace remdesivir in the REC combination; also recorded: failed to substitute for remdesivir
SARS-CoV-2 virus [1]; system optimization
  criticality when optimized for maximal cytopathic effect: failed to demonstrate criticality

## Cc1sc2c(c1C)C(c1ccc(Cl)cc1)=N[C@@H](CC(=O)OC(C)(C)C)c1nnc(C)n1-2 [JQ-1]
SARS-CoV-2 virus [1]
  enhancement of / effect on the REC combination: none of the compounds synergized with the REC combination

## COc1ccc2c3c([nH]c2c1)[C@H](CC(C)C)N1C(=O)[C@H](CCC(=O)OC(C)(C)C)NC(=O)[C@@H]1C3 [Ko143]
SARS-CoV-2 virus [1]; focus testing, REC combination at 250 nM (FIGS. 11, 12, 17)
  substitution / complementation for elacridar in the REC combination: failed to complement for elacridar
SARS-CoV-2 virus [1]; focus testing, REC combination at 250 nM (FIGS. 11, 12, 17), listed as K0143
  substitution / complementation for elacridar in the REC combination: cannot substitute for elacridar

## CC(=O)N[C@@H](CS)C(=O)O [N-acetyl cysteine]
SARS-CoV-2 virus [1]
  complementing the REC combination or substituting for curcumin: failed to complement the REC combination, or substitute for curcumin

## CCOC/C=C/c1ccc(-c2nc(-c3ccc(NC(C)C)cc3)c(-c3ccc(NC(C)C)cc3)[nH]2)cc1 [ONT-093]
SARS-CoV-2 virus [1]
  substitution / complementation for elacridar in the REC combination: failed to complement

## CC(C)[C@H](NC(=O)c1ccc2ccccc2n1)C(=O)N[C@@H](CC(=O)O)C(=O)COc1c(F)cccc1F [Q-VD-Oph]
SARS-CoV-2 virus [1]
  enhancement of / effect on the REC combination: none of the compounds synergized with the REC combination

## O=c1c(O)c(-c2ccc(O)c(O)c2)oc2cc(O)cc(O)c12 [Quercetin]
SARS-CoV-2 virus [1]
  substitution / complementation for elacridar in the REC combination: failed to complement for elacridar

## Nc1nc(Nc2ccc3c(c2)CCC(N2CCCC2)CC3)nn1-c1cc2c(nn1)-c1ccccc1CCC2 (centres unmarked) [R428]
SARS-CoV-2 virus [1]
  enhancement of / effect on the REC combination: all failed to enhance the REC combination

## CN(C)C(=O)COC(=O)Cc1ccc(OC(=O)c2ccc(NC(=N)N)cc2)cc1 [camostat]
SARS-CoV-2 virus [1]
  individual antiviral efficacy against SARS-CoV2: did not provide evidence for efficacy
SARS-CoV-2 virus [1]; [4]
  antiviral response (survival of the cells in response to the SARS-CoV-2 virus): negatively impacted the survival of the cells

## Cc1cc(C)c(Nc2ccnc(Nc3ccc(C#N)cc3)n2)c(C)c1 [dapivirine]
SARS-CoV-2 virus [1]
  enhancement of / effect on the REC combination: all failed to enhance the REC combination

## COc1cc2c(cc1OC)CN(CCc1ccc(NC(=O)c3cccc4c(=O)c5cccc(OC)c5[nH]c34)cc1)CC2 [elacridar]
SARS-CoV-2 virus [1]; [4]
  antiviral response (survival of the cells in response to the SARS-CoV-2 virus): antiviral response was demonstrated
SARS-CoV-2 virus [2]
  EC50: 1070 ± 500 nM
SARS-CoV-2 virus [3]; Severe acute respiratory syndrome coronavirus 2, 72 h, Vero E6-GFP cells, three days post-infection, read-out: EC50 for % inhibition of virus-induced CPE
  EC50: 2160 ± 500 nM
VERO-EGFP cells; [5]
  toxicology (cell viability without virus): none of the three drugs in the triad of remdesivir, elacridar, and curcumin negatively impacted cell viability

## NC(=O)c1nc(F)c[nH]c1=O [favipiravir]
SARS-CoV-2 virus [1]
  enhancement of / effect on the REC combination: had no effect on the efficacy of the remdesivir, elacridar, and curcumin combination
  individual antiviral efficacy against SARS-CoV2: failed to emerge as efficacious
  substitution for remdesivir in the REC combination: none were able to substitute for remdesivir

## Cc1nc(-c2ccc(OCC(C)C)c(C#N)c2)sc1C(=O)O [febuxostat]
SARS-CoV-2 virus [1]
  substitution / complementation for elacridar in the REC combination: cannot substitute for elacridar; also recorded: failed to complement

## CN1CC[C@H](c2c(O)cc(O)c3c(=O)cc(-c4ccccc4Cl)oc23)[C@H](O)C1 [flavopiridol]
SARS-CoV-2 virus [1]
  interaction terms / synergism in antiviral response: did not interact significantly with the other three compounds
SARS-CoV-2 virus [1]; [4]
  antiviral response (survival of the cells in response to the SARS-CoV-2 virus): antiviral response was demonstrated
VERO-EGFP cells
  toxicology (cytotoxicity without virus): cytotoxic
VERO-EGFP cells; [5]
  toxicology (cell viability without virus): highly toxic to the Vero-EGFP cells
VERO-EGFP cells; 250 nM, day 4 (FIG. 3, P3 TOX 250 nM), listed as Flavopiridol
  toxicology (cell viability without virus): individually caused cell death

## Nc1ncnc2c([C@@H]3N[C@H](CO)[C@@H](O)[C@H]3O)c[nH]c12 [galidesivir]
SARS-CoV-2 virus [1]
  contribution factor to the effect of the REC combination: 9.6

## CCN(CCO)CCCC(C)Nc1ccnc2cc(Cl)ccc12 (centres unmarked) [hydroxychloroquine]
SARS-CoV-2 virus [1]
  enhancement of / effect on the REC combination: all failed to enhance the REC combination
  individual antiviral efficacy against SARS-CoV2: failed to emerge as efficacious

## CCCCC1=NC2(CCCC2)C(=O)N1Cc1ccc(-c2ccccc2-c2nnn[nH]2)cc1 [irbesartan]
SARS-CoV-2 virus [1]
  individual antiviral efficacy against SARS-CoV2: did not provide evidence for efficacy
SARS-CoV-2 virus [1]; [4]
  antiviral response (survival of the cells in response to the SARS-CoV-2 virus): negatively impacted the survival of the cells

## Cc1cccc(C)c1OCC(=O)N[C@@H](Cc1ccccc1)[C@@H](O)C[C@H](Cc1ccccc1)NC(=O)[C@H](C(C)C)N1CCCNC1=O [lopinavir]
SARS-CoV-2 virus [1]
  individual antiviral efficacy against SARS-CoV2: did not provide evidence for efficacy

## OC(c1cc(C(F)(F)F)nc2c(C(F)(F)F)cccc12)C1CCCCN1 (centres unmarked) [mefloquine]
SARS-CoV-2 virus [1]
  enhancement of / effect on the REC combination: all failed to enhance the REC combination
  individual antiviral efficacy against SARS-CoV2: did not provide evidence for efficacy

## Cc1c(O)cccc1C(=O)N[C@@H](CSc1ccccc1)[C@H](O)CN1C[C@H]2CCCC[C@H]2C[C@H]1C(=O)NC(C)(C)C [nelfinavir]
SARS-CoV-2 virus [1]
  enhancement of / effect on the REC combination: all failed to enhance the REC combination

## CCC(CC)COC(=O)[C@H](C)N[P@](=O)(OC[C@H]1O[C@@](C#N)(c2ccc3c(N)ncnn23)[C@H](O)[C@@H]1O)Oc1ccccc1 [remdesivir]
SARS-CoV-2 virus [1]
  antiviral response (survival of the cells in response to the SARS-CoV-2 virus): antiviral response was demonstrated
SARS-CoV-2
  cytopathic effect of the virus at one concentration: minimally protected
SARS-CoV-2 virus [3]; Vero E6-GFP, 1.11 μM
  inhibition of virus-induced cytopathic effect: 50-60%
VERO-EGFP cells
  toxicology (cell viability without virus): none of the three drugs in the triad of remdesivir, elacridar, and curcumin negatively impacted cell viability
  toxicology (cytotoxicity without virus): no cytotoxicity

## CC(N)C12CC3CC(CC(C3)C1)C2 (centres unmarked) [rimantadine]
SARS-CoV-2 virus [1]
  individual antiviral efficacy against SARS-CoV2: did not provide evidence for efficacy

## CC(C)c1nc(CN(C)C(=O)N[C@H](C(=O)N[C@@H](Cc2ccccc2)C[C@H](O)[C@H](Cc2ccccc2)NC(=O)OCc2cncs2)C(C)C)cs1 [ritonavir]
SARS-CoV-2 virus [1]
  individual antiviral efficacy against SARS-CoV2: did not provide evidence for efficacy

## COc1cc2c(cc1OC)CN(CCc1ccc(NC(=O)c3cc(OC)c(OC)cc3NC(=O)c3cnc4ccccc4c3)cc1)CC2 [tariquidar]
SARS-CoV-2 virus [1]
  antiviral potency in synergizing with remdesivir (interaction terms): equally potent in synergizing with remdesivir
  substitution / complementation for elacridar in the REC combination: can be substituted for elacridar
ABCB1
  ABCB1 inhibitory potency: 5.1 nM

## C=C1CC[C@H](O)C/C1=C/C=C1\CCC[C@]2(C)[C@@H]([C@H](C)CCCC(C)C)CC[C@@H]12 [vit-D3]
SARS-CoV-2 virus [1]
  enhancement of / effect on the REC combination: failed to enhance the REC combination

## [Zn] [zinc]
SARS-CoV-2 virus [1]
  enhancement of / effect on the REC combination: failed to enhance the REC combination

## Z-VAD
SARS-CoV-2 virus [1]
  enhancement of / effect on the REC combination: none of the compounds synergized with the REC combination

## ivermectin
SARS-CoV-2 virus [1]
  enhancement of / effect on the REC combination: unable to enhance the REC combination
  individual antiviral efficacy against SARS-CoV2: individual, but limited potency
